Experimental data as given in patent US20100168085A1, “Dopamine and agonists and antagonists thereof for modulation of suppressive activity of CD4+CD25+ regulatory T cells” (YESA RESEARCH AND DEVELOPMENT CO. LTD. at the Weizmann …, priority 2003, published 2010).
Where “and” joins values, the source holds several entries; their conditions need not be identical. Identical values can stand only once. Entries after “also recorded” stand apart in the source; their conditions may differ. Marks after values point to notes of the source that are not given here. Where no end group is shown, it is not given here.

How the values were obtained:
[1] = tested on: suppressive activity of CD4+CD25+ regulatory T cells (Treg) on Teff proliferation; assay: Inhibition assay (co-culturing of Teff with Treg), [3H]-thymidine incorporation; assay type: cell-based, mouse; settings: for Suppressive activity of Treg on Teff, kinase inhibitor treatment: activated Treg incubated with inhibitor; for Effect on ability of Treg to suppress Teff proliferation: Treg preincubated with different concentrations
Description: (xvi) Activation of CD4^+CD25^+ regulatory T cells. Purified regulatory T cells (Treg; 0.5×10^6 cells/mL) were activated in RPMI medium supplemented with L-glutamine (2 mM), 2-mercaptoethanol (5×10^−5 M), sodium pyruvate (1 mM), penicillin (100 IU/mL), streptomycin (100 μg/mL), nonessential amino acids (1 mL/100 mL), and autologous serum 2% (vol/vol) in the presence of mrIL-2 (5 ng/mL) and soluble anti-CD3 antibodies (1 ng/mL). Irradiated (2500 rad) splenocytes (1.5×10^6 cells/mL) were added to the culture. Cells were activated for 24 or 96 h. In some of the 96-h experiments, fresh dopamine was added to the culture every 24 h during activation.
(xvii) Inhibition assay (co-culturing of Teff with Treg). Naïve effector T cells (Teff; 50×10^3 cells/well) were co-cultured with decreasing numbers of activated Treg for 72 h in 96-well flat-bottomed plates in the presence of irradiated splenocytes (10^6/mL) supplemented with anti-CD3 antibodies. [^3H]-thymidine (1 μCi) was added for the last 16 h of culture. After the cells were harvested, their [^3H]-thymidine content was analyzed by the use of […].
In this experiment, we examined whether dopamine acts on Treg and alters their suppressive effect on Teff. Suppression of proliferation of Teff, assayed by [^3H]thymidine incorporation, was used as a measure of suppressive effect of Treg (Thornton and Shevach, 1998).
Shevach, 1998, 2000). Inhibition of Treg proliferation, assayed by [^3H]thymidine incorporation, can therefore be taken as a measure of the suppressive effect. We examined the ability of major neurotransmitters and neuropeptides (dopamine, norepinephrine, substance P, and serotonin) to alleviate the Treg-induced suppression of Teff in vitro. Each compound was tested at several concentrations. […] After incubating the activated Treg for 2 h with a neurotransmitter or a neuropeptide, we washed the cells and then co-cultured them with Teff.

[2] = tested on: Treg; assay: Treg apoptosis (propidium iodide sub-G1, annexin V, FACS); assay type: cell-based, mouse; settings: Treg incubated with compound
Description: (viii) FACS analysis of annexin V-positive regulatory T cells. PE-stained CD25^+ cells were stained for annexin V-FITC according to the manufacturer's instructions. The cells were scored as described above, and CD25^+ lymphocytes were then gated for analysis of annexin V-positive cells.
(xv) Propidium iodide staining. Cells were fixed in cold ethanol 80% and treated with RNAse. Propidium iodide was then applied, and cell samples were assessed by FACSort.

[3] = tested on: phospho-ERK1/2 in Treg and Teff; assay: ERK1/2 phosphorylation (intracellular FACS staining, Western blot); assay type: cell-based, mouse; settings: activation with anti-CD3 and anti-CD28 for 20 min
Description: (ix) FACS analysis of intracellular labeling of phosphorylated form of ERK. T-cell subpopulations were fixed in 1.5% formaldehyde for 10 min at room temperature, washed, resuspended with vortexing in cold 100% methanol, and incubated for 1 h at 4° C. The cells were then washed with PBS containing 1% bovine serum albumin (BSA) and resuspended in 100 μL of PBS/BSA, and 12.5 μL of anti-phosphoERK1 & 2 (BioSource) was added for 20 min at room temperature. The cells were then washed, resuspended in PBS, and analyzed by FACSCalibur (Becton-Dickinson). As a negative control we incubated the phospho-peptide for 20 min with its antibody and then added the mixture to T cells.
(xix) Western blotting. Cells were stimulated for 20 min with anti-CD3 and anti-CD28 antibodies in the presence or absence of dopamine or SKF-38393. Cell lysates were prepared using RIPA lysis buffer (50 mM Tris, pH 8; 0.1% SDS; 0.5% deoxycholate; 1% NP40; 500 mM NaCl; 10 mM MgCl2) and were then kept on ice for 10 min before being vortexed and centrifuged. Supernatants were collected and 5× sample buffer (containing 25 mM Tris pH 6.8, 2% sodium dodecyl sulfate (SDS), 10% glycerol, 0.1% bromophenol blue, 0.5 M β-mercaptoethanol) was added prior to boiling. Cell extracts were separated by SDS-PAGE (10% polyacrylamide), and blotted onto nitrocellulose. Activated ERK1/2 was detected by probing blots with a 1:30,000 dilution of monoclonal antibody. Total ERK protein was detected by using a 1:10,000 dilution of a polyclonal rabbit antibody. The blots were developed by horseradish peroxidase-conjugated anti-mouse or anti-rabbit Fab and ECL (Amersham). Signals were quantified using NIH Image 1.62.
Treg were activated for 20 min in the presence or absence of dopamine (10^−5 M), and were then subjected to intracellular phosphoprotein staining (Perez and Nolan 2002) and analyzed by flow cytometry. […] As a measure of the background nonspecific staining of the phosphorylated ERK we used a specific peptide of phospho-ERK, which competes for binding of the antibody. The intracellular staining procedure for phospho-ERK detection by FACS was validated by the use of Teff incubated with 20 μM phorbol 12-myristate 13-acetate (PMA), known to stimulate the activity of protein kinase C (PKC) (data not shown).

[4] = tested on: adhesion of Treg and Teff to chondroitin sulfate proteoglycans (CSPG); assay: T cell adhesion to CSPG; assay type: cell-based, mouse
Description: (xiii) T cell adhesion. Adhesion of activated CD4^+CD25^+ and CD4^+CD25^− T cells to CSPG was analyzed as previously described (23). Briefly, flat-bottomed microtiter (96-well) plates were pre-coated with CSPG (1 μg/well, 40 min, 37° C.). ^51Cr-labeled T cells were left untreated or were pre-incubated (30 min, 37° C.) with dopamine or the specified agonist or antagonist (10^−5M). The cells (10^5 cells in 100 μL of RPMI containing 0.1% BSA) were then added to the CSPG-coated wells, incubated (30 min, 37° C.), and washed. Adherent cells were lysed and the resulting supernatants were removed and counted in a γ-counter. Results were expressed as the mean percentage of the total population before adhesion of bound T cells from quadruplicate wells for each experimental group.
One of the main features of T cells is their ability to migrate to tissues in need of rescue or repair [such as diseased or damaged CNS (Hickey, 1999; Flugel et al., 2001). […] We therefore incubated Treg with dopamine for 2 h and then examined their adhesion to chondroitin sulfate proteoglycans (CSPG), extracellular matrix proteins often associated with injured tissues (Jones et al., 2003).
To verify that the effect of dopamine on adhesion of Treg is exerted through the ERK1/2 pathway, we incubated Treg with the ERK1/2 signaling pathway inhibitor PD98059 before carrying out the adhesion assay. […] Since interaction of T cells with CSPG is mediated in part by the CD44 receptor (Henke et al., 1996), and in light of the known dependence of CD44 expression on the ERK signaling pathway, it was conceivable that dopamine might affect the expression of CD44 in Treg.

[5] = tested on: mice, glutamate-induced retinal ganglion cell death; assay: Intravitreal glutamate toxicity, retinal ganglion cell survival; assay type: in vivo, mouse; settings: for Changes in neuronal survival in treated relative to untreated mice (mean±SEM): systemic injection immediately after glutamate intoxication
Description: (iii) Intravitreal glutamate injection. The right eyes of anesthetized mice were punctured with a 27-gauge needle in the upper part of the sclera, and a 10-μL Hamilton syringe with a 30-gauge needle was inserted as far as the vitreal body. A total volume of 1 μl, of L-glutamate (400 nmol) dissolved in saline was injected into the eye.
(iv) Retrograde labeling of retinal ganglion cells. Mice were anesthetized and placed in a stereotactic device. The skull was exposed and kept dry and clean. The bregma was identified and marked. The designated point of injection was at a depth of 2 mm from the brain surface, 2.92 mm behind the bregma in the anteroposterior axis and 0.5 mm lateral to the midline. A window was drilled in the scalp above the designated coordinates in the right and left hemispheres. The neurotracer dye FluoroGold (5% solution in saline; Fluorochrome, Denver, Colo.) was applied (1 μL, at a rate of 0.5 μL/min in each hemisphere) using a Hamilton syringe, and the skin over the wound was sutured.
(xxi) Assessment of mouse retinal ganglion cell survival. Mice were given a lethal dose of pentobarbitone (170 mg/kg). Their eyes were enucleated and the retinas were detached and prepared as flattened whole mounts in 4% paraformaldehyde solution. Labeled cells from 4-6 selected fields of identical size (0.7 mm^2) were counted. The selected fields were located at approximately the same distance from the optic disk (0.3 mm) to overcome the variation in RGC density as a function of distance from the optic disk. Fields were counted under the fluorescence microscope (magnification ×800) by observers blinded to the identity of the retinas. The average number of RGCs per field in each retina was calculated.
Injection of glutamate into the eyes of adult mice causes retinal ganglion cell death that is measurable 1 week after the injection (Mizrahi et al., 2002; Schori et al., 2001a; Katayama et al., 1990). We injected Balb/c mice intraperitoneally (i.p.) with the dopamine, or its specific D1-type agonist SKF-38393 (3.3 mg/kg), or its specific D1-type antagonist SCH-23390 (3 mg/kg), immediately after their exposure to glutamate toxicity. We also injected SCID Balb/c mice with SKF-38393 (3.3 mg/kg) immediately after glutamate intoxication.
Immediately after glutamate intoxication mice were systemically injected with the indicated drugs. Neuronal survival was determined ten days later (see Materials and Methods). The results are expressed by changes (in percentage) in neuronal survival in treated mice relative to untreated mice. Each value represents a mean±SEM of a group of at least 5 animals, and each experiment was performed at least twice, independently. Asterisks (***, P<0.001; **, P<0.01) indicate statistical significance of the presented data from a single experiment using a Student's T-test statistical analysis. (NT—not tested; ns—no statistical significance).

[6] = tested on: mouse solid melanoma tumor cells M2R; assay: M2R melanoma tumor development in mice; assay type: in vivo
Description: To verify the effect of dopamine and its related compounds on tumor growth, C57BL mice were injected with the specific D1-R agonist SKF-38393 (3.3 mg/kg) immediately after inoculation of mouse solid melanoma tumor cells M2R. The experimental group (n=10) received a single injection of SKF-38393, and a control group (n=11) was injected with PBS.
To further isolate the effect of dopamine on the immune system, C57BL mice (n=10) and SCID mice (n=8) were injected with SKF-38393 (3.3 mg/kg) immediately after injecting them with solid tumor cells M2R (FIG. 9c).

[7] = tested on: mice, glutamate-induced retinal ganglion cell death; assay: Intravitreal glutamate toxicity, retinal ganglion cell survival; assay type: in vivo, mouse; settings: retinas excised 7 days afterwards

`Oc1cc2c(cc1O)C(c1ccccc1)CNCC2` (racemic) [SKF-38393, (+/−)-1-Phenyl-2,3,4,5-tetrahydro-(1H)-3-benzazepine-7,8-diol.HC1] was tested, and the “Effect on suppressive activity of Treg, compound alone” value ([1]; 10^−5 M) was “reproduced the dopamine effect”, the “Apoptosis, annexin V staining for phosphatidylserine” value [2] was “No increase in annexin V-labeled cells” and the “Phospho-ERK1/2 in activated Treg, Western blot” value [3] was “reduced”. For the same molecule, the “Adhesion of Treg to CSPG” value ([4]; dopamine 10^−9-10^−5 M, concentration-dependent, agonist 10^−5 M) was “mimicked”, the “Increase in neuronal survival relative to PBS-treated glutamate-injected controls” value ([5]; Balb/c, single i.p. injection, dopamine 0.4 mg/kg, SKF-38393 3.3 mg/kg) was 19±3.2% and the “Effect on neuronal survival in immune-deficient mice” value ([5]; SCID Balb/c, 3.3 mg/kg) was “no effect; also recorded: lack of effect”. The “Changes in neuronal survival in treated relative to untreated mice (mean±SEM)” value ([5]; SCID mice) was 3 ± 1.8 (ns) percentage, the “Changes in neuronal survival in treated relative to untreated mice (mean±SEM)” value ([5]; Wild type mice) was 19 ± 3.2** percentage and the Tumor development ([6]; C57BL mice, single injection 3.3 mg/kg immediately after M2R inoculation) was “significantly attenuated”. For the same molecule, the Tumor development ([6]; SCID mice, 3.3 mg/kg immediately after M2R inoculation) was “No effect”, the “Neuronal survival compared to vehicle-injected mice” value ([7]; 0.33 mg/kg i.v.) was “neuroprotective trend, however not significant” and the “Neuronal survival compared to vehicle-injected mice” value ([7]; 3.3 mg/kg i.v.) was “significant increase in neuronal survival”.

For `COc1cccc(-c2cc(=O)c3ccccc3o2)c1N` [PD98059], the “Suppressive activity of Treg on Teff, kinase inhibitor treatment” value [1] was “significantly reduced the suppressive activity; also recorded: almost completely abolished their suppression” and the “Adhesion of Treg to CSPG after ERK1/2 pathway inhibitor” value ([4]; Treg incubated with PD98059 before assay) was “significantly reduced”.

For `CN1CCc2cc(Cl)c(O)cc2[C@@H](c2ccccc2)C1` [SCH-23390], the “Decrease in neuronal survival relative to PBS-injected mice” value ([5]; Balb/c, SCH-23390 3 mg/kg i.p., 3 mg/kg) was 11±1.5% and 11% and the “Changes in neuronal survival in treated relative to untreated mice (mean±SEM)” value ([5]; Wild type mice) was −11 ± 1.5** percentage.

`O=c1c(-c2ccc(O)cc2)coc2cc(O)cc(O)c12` [genistein, 4′,5,7-trihydroxy isoflavone] was tested, and the “Suppressive activity of Treg on Teff, kinase inhibitor treatment” value [1] was “blocked the suppressive activity”, the “Proliferation of Treg themselves” value ([1]; in the presence of genistein) was “underwent proliferation themselves” and the “Proliferation of Teff” value ([1]; same concentration as used on Treg) was “had no effect”.

In the case of `NC[C@H](O)c1ccc(O)c(O)c1` [norepinephrine], the “Effect on suppressive activity of Treg” value ([1]; 10^−5 or 10^−7 M for 2 h after 24 h activation) is reported as “did not affect the suppressive activity of Treg” and the “Effect on ability of Treg to suppress Teff proliferation” value (“Effect on ability of Treg” for short) [1] is reported as “no effect”.

`NCCc1c[nH]c2ccc(O)cc12` [serotonin] was tested, and the “Effect on ability of Treg” value [1] was “no effect”.

With “substance P: a pain- and stress-related neurotransmitter (neuropeptide) (RPKPQQFFGLM-NH2; UniProt P20366 58-68, looked up)” the “Effect on ability of Treg” value [1] was “no effect”.
